# Patent publication US12679824B2 (Hoffmann-La Roche Inc., priority 2020, dated 2026)
# Tested on: Acinetobacter baumannii ATCC17961
# Assay: 90% Growth Inhibitory Concentration (IC90) determination, antimicrobial susceptibility testing
# Format: cell-based
# Details: Acinetobacter baumannii, ATCC17961, 16 h, Acinetobacter baumannii ATCC17961; Iso-Sensitest broth; growth by optical density at 600 nm over 16h; concentration inhibiting 90% of the growth; read-out: ATCC 17961 IC90
# Procedure, shortened: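 Broth microdilution in Iso-Sensitest medium, compounds twofold diluted (e.g. 50–0.097 μM final), inoculum ~5×10^(5) CFU/ml, 35±2° C. OD600 was read every 20 min over 16 h. IC90 was derived from growth inhibition during logarithmic growth.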
row,IC90 [nM],SMILES
1,680,"Cn1cnc(-n2cc(-c3cnc(C(=O)Nc4ccc(C(=O)N5CCN(C(=O)C6CCNCC6)CC5)c(Cl)c4)n3C)c(C(F)(F)F)n2)c1 [Example E4, N-[3-chloro-4-[4-(piperidine-4-carbonyl)piperazine-1-carbonyl]phenyl]-1-methyl-5-[1-(1-methylimidazol-4-yl)-3-(trifluoromethyl)pyrazol-4-yl]imidazole-2-carboxamide]"
2,930,"Cn1c(-c2cn(-c3ccc(N)cn3)nc2C(F)(F)F)cnc1C(=O)Nc1ccc(C(=O)N2CC3CNCC3C2)c(Cl)c1 (stereo not shown) [Example Z12, N-[4-(2,3,3a,4,6,6a-hexahydro-1H-pyrrolo[3,4-c]pyrrole-5-carbonyl)-3-chloro-phenyl]-5-[1-(5-amino-2-pyridyl)-3-(trifluoromethyl)pyrazol-4-yl]-1-methyl-imidazole-2-carboxamide]"
3,1310,"COCC1CN(C(=O)c2ccc(NC(=O)c3ncc(-c4cn(-c5ccc(N)cn5)nc4C(F)(F)F)n3C)cc2Cl)CCN1 (stereo not shown) [Example Z69, 5-[1-(5-amino-2-pyridyl)-3-(trifluoromethyl)pyrazol-4-yl]-N-[3-chloro-4-[3-(methoxymethyl)piperazine-1-carbonyl]phenyl]-1-methyl-imidazole-2-carboxamide]"
4,400,"Cn1c(-c2cn(-c3ccc(N)cn3)nc2C(F)(F)F)cnc1C(=O)Nc1ccc(C(=O)NCc2cc[nH]n2)c(Cl)c1 [Example I2, 5-[1-(5-amino-2-pyridyl)-3-(trifluoromethyl)pyrazol-4-yl]-N-[3-chloro-4-(1H-pyrazol-3-ylmethylcarbamoyl)phenyl]-1-methyl-imidazole-2-carboxamide]"
5,420,"CN1CCC(C(=O)N2CCN(C(=O)c3ccc(NC(=O)c4ncc(-c5cn(-c6ccc(N)cn6)nc5C(F)F)n4C)cc3Cl)CC2)CC1 [Example C9, 5-[1-(5-amino-2-pyridyl)-3-(difluoromethyl)pyrazol-4-yl]-N-[3-chloro-4-[4-(1-methylpiperidine-4-carbonyl)piperazine-1-carbonyl]phenyl]-1-methyl-imidazole-2-carboxamide]"
6,580,"Cn1c(-c2cn(-c3ccc(N)cn3)nc2C(F)(F)F)cnc1C(=O)Nc1ccc(C(=O)N2CC[C@@H](CNC(=O)[C@@H]3C[C@@H](O)CN3)C2)c(Cl)c1 [Example Z39, 5-[1-(5-amino-2-pyridyl)-3-(trifluoromethyl)pyrazol-4-yl]-N-[3-chloro-4-[(3S)-3-[[[(2S,4R)-4-hydroxyprolyl]amino]methyl]pyrrolidine-1-carbonyl]phenyl]-1-methyl-imidazole-2-carboxamide]"
7,860,"COc1cccc(-n2cc(-c3cnc(C(=O)Nc4ccc(C(=O)N5CCN(C(=O)C6CCNCC6)CC5)c(Cl)c4)n3C)c(C(F)(F)F)n2)n1 [Example Z31, N-[3-chloro-4-(4-isonipecotoylpiperazine-1-carbonyl)phenyl]-5-[1-(6-methoxy-2-pyridyl)-3-(trifluoromethyl)pyrazol-4-yl]-1-methyl-imidazole-2-carboxamide]"
8,340,"Cc1cc(-n2cc(-c3cnc(C(=O)Nc4ccc(C(=O)N5CCN(C(=O)C6CCNCC6)CC5)c(Cl)c4)n3C)c(C(F)(F)F)n2)ncc1N [Example Z82, 5-[1-(5-amino-4-methyl-2-pyridyl)-3-(trifluoromethyl)pyrazol-4-yl]-N-[3-chloro-4-[4-(piperidine-4-carbonyl)piperazine-1-carbonyl]phenyl]-1-methyl-imidazole-2-carboxamide]"
9,540,"Cn1c(-c2cn(-c3cc(N)c(N)cn3)nc2C(F)(F)F)cnc1C(=O)Nc1ccc(C(=O)N2CCN(C(=O)C3CCNCC3)CC2)c(Cl)c1 [Example Z87, N-[3-chloro-4-[4-(piperidine-4-carbonyl)piperazine-1-carbonyl]phenyl]-5-[1-(4,5-diamino-2-pyridyl)-3-(trifluoromethyl)pyrazol-4-yl]-1-methyl-imidazole-2-carboxamide]"
10,460,"Cn1c(-c2cn(-c3ccc(N)cn3)nc2C(F)(F)F)cnc1C(=O)Nc1ccc(C(=O)N2CCC(NC(=O)[C@@H]3C[C@@H](O)CN3)CC2)c(Cl)c1 [Example Z24, 5-[1-(5-amino-2-pyridyl)-3-(trifluoromethyl)pyrazol-4-yl]-N-[3-chloro-4-[4-[[(2S,4R)-4-hydroxyprolyl]amino]piperidine-1-carbonyl]phenyl]-1-methyl-imidazole-2-carboxamide]"
11,650,"C[C@H]1NCCN(C(=O)c2ccc(NC(=O)c3ncc(-c4cn(-c5ccc(N)cn5)nc4C(F)(F)F)n3C)cc2Cl)[C@H]1C [Example Z68, 5-[1-(5-amino-2-pyridyl)-3-(trifluoromethyl)pyrazol-4-yl]-N-[3-chloro-4-[(2S,3R)-2,3-dimethylpiperazine-1-carbonyl]phenyl]-1-methyl-imidazole-2-carboxamide]"
12,950,"Cn1c(-c2cn(-c3ccc(N)cn3)nc2C(F)(F)F)cnc1C(=O)Nc1ccc(C(=O)N[C@H]2C[C@@H](N)C2)c(Cl)c1 [Example Z11, N-[4-[cis-(3-aminocyclobutyl)carbamoyl]-3-chloro-phenyl]-5-[1-(5-amino-2-pyridyl)-3-(trifluoromethyl)pyrazol-4-yl]-1-methyl-imidazole-2-carboxamide]"
13,300,"Cn1c(-c2cn(-c3ccc(N)cn3)nc2C(F)(F)F)cnc1C(=O)Nc1ccc(C(=O)N[C@@H]2COC3(C2)CN(C(=O)[C@@H]2C[C@@H](O)CN2)C3)c(Cl)c1 [Example Z41, 5-[1-(5-amino-2-pyridyl)-3-(trifluoromethyl)pyrazol-4-yl]-N-[3-chloro-4-[[(7S)-2-[(2S,4R)-4-hydroxyprolyl]-5-oxa-2-azaspiro[3.4]octan-7-yl]carbamoyl]phenyl]-1-methyl-imidazole-2-carboxamide]"
14,930,"COc1ccnc(-n2cc(-c3cnc(C(=O)Nc4ccc(C(=O)N5CCN(C(=O)C6CCNCC6)CC5)c(Cl)c4)n3C)c(C(F)(F)F)n2)n1 [Example C5, N-[3-chloro-4-[4-(piperidine-4-carbonyl)piperazine-1-carbonyl]phenyl]-5-[1-(4-methoxypyrimidin-2-yl)-3-(trifluoromethyl)pyrazol-4-yl]-1-methyl-imidazole-2-carboxamide]"
15,7000,"COc1nn(-c2ccc(N)cn2)cc1-c1cnc(C(=O)Nc2ccc(C(=O)N3CCN(C(=O)C4CCN(C)CC4)CC3)c(Cl)c2)n1C [Example C10, 5-[1-(5-amino-2-pyridyl)-3-methoxy-pyrazol-4-yl]-N-[3-chloro-4-[4-(1-methylpiperidine-4-carbonyl)piperazine-1-carbonyl]phenyl]-1-methyl-imidazole-2-carboxamide]"
16,950,"COc1cc(-n2cc(-c3cnc(C(=O)Nc4ccc(C(=O)N5CCN(C(=O)C6CCNCC6)CC5)c(Cl)c4)n3C)c(C(F)(F)F)n2)ccn1 [Example Z73, N-[3-chloro-4-(4-isonipecotoylpiperazine-1-carbonyl)phenyl]-5-[1-(2-methoxy-4-pyridyl)-3-(trifluoromethyl)pyrazol-4-yl]-1-methyl-imidazole-2-carboxamide]"
17,360,"Cn1c(-c2cn(-c3ccc(N)cn3)nc2C(F)(F)F)cnc1C(=O)Nc1ccc(C(=O)NCCCCCN)c(Cl)c1 [Example Z28, N-[4-(5-aminopentylcarbamoyl)-3-chloro-phenyl]-5-[1-(5-amino-2-pyridyl)-3-(trifluoromethyl)pyrazol-4-yl]-1-methyl-imidazole-2-carboxamide]"
18,750,"Cn1c(-c2cn(-c3cnc(N)c(F)c3)nc2C(F)(F)F)cnc1C(=O)Nc1ccc(C(=O)N2CCN(C(=O)C3CCNCC3)CC2)c(Cl)c1 [Example Z74, 5-[1-(6-amino-5-fluoro-3-pyridyl)-3-(trifluoromethyl)pyrazol-4-yl]-N-[3-chloro-4-[4-(piperidine-4-carbonyl)piperazine-1-carbonyl]phenyl]-1-methyl-imidazole-2-carboxamide]"
19,2000,"CN1CCC(C(=O)N2CCN(C(=O)c3ccc(NC(=O)c4ncc(-c5cn(-c6ccc(N)cn6)nc5C#N)n4C)cc3Cl)CC2)CC1 [Example C11, 5-[1-(5-amino-2-pyridyl)-3-cyano-pyrazol-4-yl]-N-[3-chloro-4-[4-(1-methylpiperidine-4-carbonyl)piperazine-1-carbonyl]phenyl]-1-methyl-imidazole-2-carboxamide]"

# Same assay, conditions: Acinetobacter baumannii, ATCC17961, 16 h, read-out: ATCC 17961 IC90
row,SMILES,IC90 [nM]
1,"COCCn1cc(-n2cc(-c3cnc(C(=O)Nc4ccc(C(=O)N5CCN(C(=O)C6CCNCC6)CC5)c(Cl)c4)n3C)c(C(F)(F)F)n2)cn1 [Example E1, N-[3-chloro-4-[4-(piperidine-4-carbonyl)piperazine-1-carbonyl]phenyl]-5-[1-[1-(2-methoxyethyl)pyrazol-4-yl]-3-(trifluoromethyl)pyrazol-4-yl]-1-methyl-imidazole-2-carboxamide]",880
2,"Cn1c(-c2cn(-c3ncccn3)nc2C(F)(F)F)cnc1C(=O)Nc1ccc(C(=O)N2CCN(C(=O)[C@H]3[C@@H]4CNC[C@@H]43)CC2)c(Cl)c1 [Example F1, N-[4-[4-[(1R,5S)-3-Azabicyclo[3.1.0]hexane-6-carbonyl]piperazine-1-carbonyl]-3-chloro-phenyl]-1-methyl-5-[1-pyrimidin-2-yl-3-(trifluoromethyl)pyrazol-4-yl]imidazole-2-carboxamide]",450
3,"Cn1c(-c2cn(-c3ccc(N)cn3)nc2C(F)(F)F)cnc1C(=O)Nc1ccc(C(=O)N2CC[C@H](CN)C2)c(Cl)c1 [Example Z1, N-[4-[(3R)-3-(aminomethyl)pyrrolidine-1-carbonyl]-3-chloro-phenyl]-5-[1-(5-amino-2-pyridyl)-3-(trifluoromethyl)pyrazol-4-yl]-1-methyl-imidazole-2-carboxamide]",480
